What was measured:
Type in all cases: cell-based
HIV-1 IIIB = test: Antiviral activity of recombinant lentiviruses against HIV-1 IIIB in H9 cells (P24 antigen ELISA); details: H9 + HIV-1 IIIB, positive drug, concentration 1 μM; for Relative concentration(%): vs no-drug control = 100; for Average concentration of P24: day 7
Protocol: The H9 cells were resuscitated and subcultured in complete medium (RPMI-1640+10% FBS+PS). The cells were resuspended in OPTI-MEM medium, counted and adjusted to a concentration of 5×10^5 cells/ml, and inoculated in 6-well plates with 2 ml per well. The experimental groups SIV-Gag3, SIV-Gag2, SIV-Gag1, SIV-LTR2 or SIV-Nef, SIV-EGFP empty vector control group and blank control group (no HIV-1 IIIB infection, and […]) were set on the 6-well plates. The above recombinant lentiviruses were added to the 6-well plates with the multiplicity of infection (MOI) of 2000, mixed, and cultured at 37° C., 5% CO2 for 24 hours. Each well was supplemented with 4 ml complete medium and cultured at 37° C., 5% CO2 for 72 hours.
(§1) 5 ml of supernatant from each well of 6-well plates was discarded and another 5 ml of fresh complete medium was added. Cells were diluted and inoculated in 96-well plates at 1×10^4 cells/well. 0.5 ml of HIV-1 IIIB was diluted with 5.75 ml of complete medium and mixed. Then 100 μl of virus diluent was added to each well of cells, except for the blank control group, mixed and incubated at 37° C. and 5% CO2. Half volume of liquid was changed on day 2 and day 4 after HIV-1 IIIB infection, respectively. 150 μl of sample was taken from each well on day 7 after infection, sealed and heated at 56° C. for 30 minutes. After the HIV viruses were thermally inactivated, the sample was stored at −20° C., ready for ELISA detection.
HIV-1 P24 antigen detection kit (96T) (Beijing Jinboyi Biotechnology Co., Ltd.) was used for ELISA detection. The OD Value was measured with a microplate reader. Then average value, and relative concentration was calculated to determine the antiviral activity of the recombinant lentiviruses against HIV-1 IIIB in H9 cells.
The H9 cells were resuscitated and subcultured in complete medium (RPMI-1640+10% FBS+PS). The cells were resuspended in OPTI-MEM medium, counted and adjusted to a concentration of 5×10^5 cells/ml, and inoculated in 6-well plates with 2 ml per well. The experimental groups SIV-G3L2, SIV-G2L2, SIV-G1L2, or SIV-G2N, SIV-EGFP empty vector control group, positive drug control group (Efavirenz, EFV, Shanghai Desano Pharmaceuticals Co., Ltd., Concentration 1 μM), no-drug control group (HIV-1 IIIB infection, and no recombinant lentivirus drug administration) and blank control group (no HIV-1 IIIB infection, and no lentivirus drug administration) were set on the 6-well plates. The recombinant lentiviruses were added to the 6-well plates at five doses with the multiplicity of infection (MOI) of 125, 250, 500, 1000, and 2000, and the added volumes were 2.1 μL, 4.2 μL, 8.4 μL, 16.7 μL, 33.3 μL, respectively, with one well for each dose. The recombinant lentivirus SIV-EGFP with MOI of 2000 was added as an empty vector control, the volume was 33.3 μL. Mixed, and cultured at 37° C. and 5% CO2 for 24 hours. Each well was supplemented with 4 ml complete medium and cultured at 37° C., 5% CO2 for 72 hours.
as §1, with “the cells” for “Cells”

[1] = system: HIV reverse transcriptase inhibitor resistant strain MT2-010; test: Antiviral activity against reverse transcriptase inhibitor resistant strain MT2-010 in MT2 cells (P24 ELISA); details: MT2 + MT2-010, positive drug, concentration 1 μM; for Average concentration: P24 ELISA; for Relative concentration(%): vs no-drug control = 100
Protocol: The experimental design of example 4 was the same as that of Example 3, except that the tested strain was a reverse transcriptase inhibitor resistant strain MT2-010, and the infected cells were MT2 cells. Firstly, cell culture and recombinant lentivirus infection: the experimental group SIV-G3L2 or
(§2) SIV-G2N, SIV-EGFP empty vector control group, positive drug control group (Efavirenz, EFV, Shanghai Desano Pharmaceuticals Co., Ltd., Concentration 1 μM), no drug control group (MT2-010 infection, and no recombinant lentivirus drug administration), and a blank control group were set on the 6-well plates. The recombinant lentiviruses were added to the 6-well plates with the multiplicity of infection (MOI) of 125, 250, 500, 1000 and 2000, respectively, and the recombinant lentivirus SIV-EGFP with MOI of 2000 was added as an empty vector control. Mixed and cultured.
Then virus challenge: the MT2 cells were diluted and inoculated in 96-well plates at 1×10^4 cells/well. The reverse transcriptase inhibitor resistant strain MT2-010 was diluted with complete culture medium, and mixed. The virus diluent was added into each well of cells, except for the blank control group. Mixed and cultured. The sampling was performed as described in Example 3, and ELISA detection was performed by using the above-mentioned kit. The OD value was measured with a microplate reader. Then average value, and relative concentration was calculated to determine the antiviral activity of the recombinant lentiviruses against MT2-010 in MT2 cells.

[2] = system: HIV protease inhibitor resistant strain MT2-884; test: Antiviral activity against protease inhibitor resistant strain MT2-884 in MT2 cells (P24 ELISA); details: Table 9, MT2 + MT2-884, positive drug, concentration 1 μM
Protocol: as §2, with “The experimental method of example 5 was the same as Step 1 of Example 3, except that the tested strain was a protease inhibitor resistant strain MT2-884, and the infected cells were MT2 cells. Firstly, cell culture and recombinant lentivirus SIV-G3L2 or SIV-G2N infection: Cells were cultured in 6-well plates, and the experimental group SIV-G3L2 or SIV-G2N,” for “SIV-G2N,”, “(MT2-884” for “(MT2-010”
Then virus challenge: the MT2 cells were diluted and inoculated in 96-well plates at 1×10^4 cells/well. […] The OD value was measured with a microplate reader. then average value, and relative concentration was calculated to determine the antiviral activity of the recombinant lentiviruses against MT2-884 in MT2 cells.

SMILES: O=C1Nc2ccc(Cl)cc2[C@@](C#CC2CC2)(C(F)(F)F)O1 [EFV, Efavirenz]
- Average concentration (HIV-1 IIIB; Table 3, P24 ELISA day 7): 10
- Relative concentration(%) (HIV-1 IIIB; Table 3): 0.05%
- Average concentration of P24 (HIV-1 IIIB; Table 4): <10 pg/mL
- Relative concentration(%) (HIV-1 IIIB; Table 4): 0.05%
- Average concentration of P24 (HIV-1 IIIB; Table 5): <10 pg/mL
- Relative concentration(%) (HIV-1 IIIB; Table 5): 0.05%
- Average concentration of P24 (HIV-1 IIIB; Table 6): <10 pg/mL
- Relative concentration(%) (HIV-1 IIIB; Table 6): 0.05%
- Average concentration ([1]; Table 7): 52.69
- Relative concentration(%) ([1]; Table 7): 0.17%
- Average concentration ([1]; Table 8): 59.36
- Relative concentration(%) ([1]; Table 8): 0.21%
- Average concentration(pg/ml) ([2]; P24 ELISA): 50 pg/mL
- Relative concentration(%) ([2]; vs no-drug control = 100): 0.51%

From patent US20250101429A1, “siRNAs and shRNAs Targeting HIV and Combinations, Expression Cassettes, Cells and Use Thereof” (BEIJING SOLOBIO GENETECHNOLOGY CO., LTD., priority 2021, published 2025)
